In a compilation of properties of binary mixtures (doi:10.1016/j.molliq.2022.120193):

Test: xn = mol fraction of the nth substance listed
Conditions: 100 kPa

CC[N+](C)(CC)CCOC.F[B-](F)(F)F + CCCC[n+]1ccn(C)c1C.F[B-](F)(F)F
electrical conductivity [S/m]
Conditions | x1 = 0.1 | x1 = 0.2 | x1 = 0.3 | x1 = 0.4 | x1 = 0.5 | x1 = 0.6 | x1 = 0.7 | x1 = 0.8 | x1 = 0.9 | x1 = 1
313.15 K | 0.231 | 0.244 | 0.282 | – | 0.29 | 0.296 | – | 0.321 | 0.348 | 0.343
318.15 K | 0.305 | – | 0.354 | – | – | 0.38 | 0.392 | – | 0.445 | –
323.15 K | 0.392 | 0.404 | 0.437 | 0.445 | 0.465 | 0.472 | 0.498 | 0.519 | – | 0.553
328.15 K | – | – | 0.534 | 0.541 | – | 0.579 | 0.614 | 0.639 | – | 0.68
333.15 K | 0.604 | 0.613 | 0.643 | 0.67 | – | 0.72 | 0.766 | 0.782 | 0.822 | 0.829
338.15 K | 0.727 | 0.736 | 0.758 | – | 0.79 | 0.828 | 0.884 | 0.939 | 0.995 | 1
343.15 K | 0.861 | 0.871 | 0.9 | – | 0.936 | 0.978 | 1.03 | 1.09 | – | 1.18
348.15 K | 1.02 | 1.03 | 1.05 | 1.07 | 1.09 | – | 1.2 | 1.27 | 1.37 | 1.39
353.15 K | 1.16 | – | – | – | – | 1.32 | – | 1.42 | 1.59 | –
358.15 K | 1.31 | 1.35 | – | – | 1.46 | 1.51 | 1.56 | – | 1.82 | 1.86
363.15 K | 1.5 | 1.53 | 1.58 | 1.62 | – | 1.73 | 1.77 | 1.82 | 2.01 | –

CCCC[n+]1ccn(C)c1C.F[B-](F)(F)F + FC(S(=O)(=O)[N-]S(=O)(=O)C(F)(F)F)(F)F.C(CCC)N1C(=[N+](C=C1)C)C
x2 = 0
Conditions | electrical conductivity [S/m]
318.15 K | 0.153
333.15 K | 0.335
343.15 K | 0.531
348.15 K | 0.63
353.15 K | 0.749
358.15 K | 0.867
363.15 K | 0.995

CC[N+](C)(CC)CCOC.O=S(=O)([N-]S(=O)(=O)C(F)(F)F)C(F)(F)F + CC[N+](C)(CC)CCOC.F[B-](F)(F)F
x1 = 1
Conditions | electrical conductivity [S/m]
293.15 K | 0.237
303.15 K | 0.382
308.15 K | 0.476
313.15 K | 0.572
318.15 K | 0.683
323.15 K | 0.794
328.15 K | 0.922
333.15 K | 1.06
338.15 K | 1.2
343.15 K | 1.32

CC[N+](C)(CC)CCOC.F[B-](F)(F)F + CC[N+](C)(CC)CCOC.O=S(=O)([N-]S(=O)(=O)C(F)(F)F)C(F)(F)F
electrical conductivity [S/m]
Conditions | x2 = 0 | x2 = 0.1 | x2 = 0.2 | x2 = 0.3 | x2 = 0.4 | x2 = 0.5 | x2 = 0.6 | x2 = 0.7 | x2 = 0.8 | x2 = 0.9
293.15 K | 0.096 | – | 0.133 | 0.14 | 0.149 | 0.161 | 0.175 | 0.168 | 0.184 | 0.198
298.15 K | 0.136 | 0.161 | 0.174 | – | 0.202 | 0.214 | 0.234 | – | 0.251 | –
303.15 K | 0.19 | 0.218 | 0.233 | 0.25 | 0.264 | 0.277 | 0.304 | 0.298 | 0.324 | –
308.15 K | 0.255 | 0.292 | 0.305 | – | 0.338 | – | – | 0.381 | 0.407 | 0.423
313.15 K | 0.343 | 0.381 | – | – | 0.425 | 0.444 | 0.47 | 0.472 | – | 0.509
318.15 K | 0.437 | 0.483 | 0.485 | 0.506 | – | 0.541 | 0.569 | – | 0.599 | 0.625
323.15 K | 0.553 | 0.596 | – | – | 0.636 | 0.652 | 0.684 | 0.687 | 0.709 | 0.731
328.15 K | 0.68 | 0.737 | – | 0.734 | 0.763 | 0.779 | – | 0.804 | 0.833 | 0.863
333.15 K | 0.829 | – | 0.858 | 0.873 | 0.897 | – | 0.934 | – | 0.964 | 0.993
338.15 K | 1 | 1.06 | 1.02 | 1.02 | 1.04 | 1.06 | 1.08 | – | 1.11 | 1.13
343.15 K | 1.18 | 1.24 | – | – | 1.2 | 1.22 | 1.24 | 1.23 | – | 1.29

CCCCn1cc[n+](C)c1C.O=S(=O)([N-]S(=O)(=O)C(F)(F)F)C(F)(F)F + CC[N+](C)(CC)CCOC.O=S(=O)([N-]S(=O)(=O)C(F)(F)F)C(F)(F)F
electrical conductivity [S/m]
Conditions | x2 = 0 | x2 = 0.1 | x2 = 0.2 | x2 = 0.3 | x2 = 0.4 | x2 = 0.5 | x2 = 0.6 | x2 = 0.7 | x2 = 0.8 | x2 = 0.9
293.15 K | – | 0.191 | – | 0.195 | 0.201 | – | 0.206 | 0.211 | 0.21 | 0.21
298.15 K | – | 0.253 | – | 0.259 | 0.263 | 0.264 | 0.268 | 0.275 | 0.28 | 0.28
303.15 K | 0.302 | 0.323 | 0.326 | 0.325 | 0.336 | 0.337 | 0.345 | 0.355 | 0.351 | 0.351
308.15 K | – | 0.402 | 0.403 | 0.407 | 0.414 | 0.423 | 0.426 | 0.432 | 0.434 | 0.434
313.15 K | 0.465 | 0.498 | 0.497 | 0.499 | 0.509 | – | 0.515 | – | 0.56 | 0.56
318.15 K | 0.566 | 0.589 | – | 0.601 | 0.611 | 0.616 | 0.62 | 0.638 | – | 0.648
323.15 K | – | 0.705 | 0.71 | 0.722 | 0.726 | 0.735 | 0.742 | – | 0.763 | 0.763
328.15 K | – | – | 0.825 | – | – | 0.865 | 0.87 | 0.876 | 0.902 | –
333.15 K | 0.901 | 0.965 | 0.962 | 0.969 | 0.973 | 0.991 | – | 1.01 | 1.02 | 1.02
338.15 K | 1.04 | 1.1 | – | 1.12 | 1.12 | 1.13 | 1.13 | 1.16 | 1.17 | 1.17
343.15 K | 1.18 | – | – | 1.27 | 1.27 | 1.28 | 1.29 | 1.32 | – | 1.33

CC[N+](C)(CC)CCOC.O=S(=O)([N-]S(=O)(=O)C(F)(F)F)C(F)(F)F + FC(S(=O)(=O)[N-]S(=O)(=O)C(F)(F)F)(F)F.C(CCC)N1C(=[N+](C=C1)C)C
x1 = 1
Conditions | electrical conductivity [S/m]
293.15 K | 0.237
298.15 K | 0.311
303.15 K | 0.382
308.15 K | 0.476
313.15 K | 0.572
318.15 K | 0.683
323.15 K | 0.794
328.15 K | 0.922
333.15 K | 1.06
338.15 K | 1.2
343.15 K | 1.32

CCCC[n+]1ccn(C)c1C.F[B-](F)(F)F + CC[N+](C)(CC)CCOC.F[B-](F)(F)F
x2 = 0
Conditions | electrical conductivity [S/m]
318.15 K | 0.153
323.15 K | 0.202
328.15 K | 0.26
353.15 K | 0.749
358.15 K | 0.867
363.15 K | 0.995

CCCCn1cc[n+](C)c1C.O=S(=O)([N-]S(=O)(=O)C(F)(F)F)C(F)(F)F + CCCC[n+]1ccn(C)c1C.F[B-](F)(F)F
electrical conductivity [S/m]
Conditions | x1 = 0.1 | x1 = 0.2 | x1 = 0.3 | x1 = 0.4 | x1 = 0.5 | x1 = 0.6 | x1 = 0.7 | x1 = 0.8 | x1 = 0.9 | x1 = 1
313.15 K | 0.231 | 0.249 | 0.265 | 0.305 | – | 0.32 | 0.35 | 0.403 | 0.476 | 0.465
318.15 K | 0.301 | 0.32 | – | 0.378 | – | 0.394 | 0.432 | – | 0.572 | 0.566
323.15 K | 0.381 | – | – | – | 0.476 | 0.482 | 0.521 | 0.59 | 0.683 | 0.665
328.15 K | 0.474 | 0.49 | 0.508 | 0.54 | 0.572 | 0.581 | 0.617 | 0.698 | 0.812 | 0.777
333.15 K | 0.587 | 0.6 | 0.617 | 0.645 | 0.68 | – | 0.709 | 0.816 | 0.94 | 0.901
338.15 K | 0.707 | 0.715 | – | – | 0.796 | – | 0.839 | 0.949 | 1.08 | 1.04
343.15 K | 0.844 | 0.848 | 0.859 | 0.894 | 0.931 | 0.952 | 0.963 | 1.08 | 1.23 | 1.18
348.15 K | 0.997 | 0.995 | 1.01 | – | 1.07 | 1.08 | 1.09 | – | – | 1.37
353.15 K | 1.16 | 1.15 | 1.16 | 1.18 | 1.23 | 1.23 | 1.24 | – | 1.56 | 1.54
358.15 K | – | 1.31 | 1.32 | 1.34 | – | 1.4 | – | – | 1.74 | –
363.15 K | 1.5 | – | 1.5 | 1.51 | – | 1.57 | 1.59 | 1.64 | 1.91 | 1.87
